# Results reported in ChEMBL document CHEMBL1129510, “Toward a novel metal-based chemotherapy against tropical diseases. 2. Synthesis and antimalarial activity in vitro and in vivo of new ruthenium- and rhodium-chloroquine complexes” (J Med Chem, 1996).
# Legend:
# Format in all cases: functional, organism-based
# Plasmodium berghei = assay: In vitro inhibitory activity against Plasmodium berghei
# Plasmodium falciparum [1] = assay: In vitro inhibitory activity against Plasmodium falciparum FcB1
# Plasmodium falciparum [2] = assay: In vitro inhibitory activity against Plasmodium falciparum FCB2
IC50 (Plasmodium berghei; Plasmodium berghei) [nM],IC50 (Plasmodium berghei) [nM],IC50 (Plasmodium falciparum [1]) [nM],IC50 (Plasmodium falciparum [2]) [nM],Molecule
72,,,,CCN(CC)CCCC(C)Nc1ccnc2cc(Cl)ccc12 (centres undefined) [CHLOROQUINE PHOSPHATE]
,18,10.5,46.5,Ruthenium-Chloroquine Complex[RuCl2(CQ)]2
